Source: the NIST ThermoML archive (doi:10.1007/s10765-005-8096-3)
± gives the expanded uncertainty stated by the source.

Test: refractive index (Na D-line) (dimensionless); xn = mol fraction of the nth substance listed
Conditions: 101 kPa, Liquid, Standard Abbe refractometry

CC(C)(C)c1ccccc1 [(1,1-dimethylethyl)benzene] + CCCCOC(C)=O
refractive index (293.15 K, x2 = 0.0517): 1.48818 ± 0.00068
refractive index (293.15 K, x2 = 0.1): 1.48411 ± 0.00067
refractive index (293.15 K, x2 = 0.1522): 1.4795 ± 0.00067
refractive index (293.15 K, x2 = 0.1995): 1.47531 ± 0.00068
refractive index (293.15 K, x2 = 0.2511): 1.47077 ± 0.00069
refractive index (293.15 K, x2 = 0.3008): 1.46621 ± 0.00068
refractive index (293.15 K, x2 = 0.3516): 1.46145 ± 0.00068
refractive index (293.15 K, x2 = 0.4061): 1.45636 ± 0.00067
refractive index (293.15 K, x2 = 0.4489): 1.45221 ± 0.00068
refractive index (293.15 K, x2 = 0.4994): 1.44728 ± 0.00067
refractive index (293.15 K, x2 = 0.5499): 1.44227 ± 0.00067
refractive index (293.15 K, x2 = 0.607): 1.43649 ± 0.00067
refractive index (293.15 K, x2 = 0.6496): 1.43209 ± 0.00068
refractive index (293.15 K, x2 = 0.7006): 1.42687 ± 0.00066
refractive index (293.15 K, x2 = 0.7489): 1.42175 ± 0.00067
refractive index (293.15 K, x2 = 0.8013): 1.41615 ± 0.00067
refractive index (293.15 K, x2 = 0.8509): 1.41079 ± 0.00067
refractive index (293.15 K, x2 = 0.9005): 1.40535 ± 0.00066
refractive index (293.15 K, x2 = 0.95): 1.39982 ± 0.00066
refractive index (298.15 K, x2 = 0.0517): 1.48564 ± 0.00066
refractive index (298.15 K, x2 = 0.1): 1.48154 ± 0.00068
refractive index (298.15 K, x2 = 0.1522): 1.47702 ± 0.00067
refractive index (298.15 K, x2 = 0.1995): 1.47273 ± 0.00067
refractive index (298.15 K, x2 = 0.2511): 1.46811 ± 0.00068
refractive index (298.15 K, x2 = 0.3008): 1.4636 ± 0.00067
refractive index (298.15 K, x2 = 0.3516): 1.45891 ± 0.00067
refractive index (298.15 K, x2 = 0.4061): 1.45381 ± 0.00067
refractive index (298.15 K, x2 = 0.4489): 1.44966 ± 0.00067
refractive index (298.15 K, x2 = 0.4994): 1.44477 ± 0.00067
refractive index (298.15 K, x2 = 0.5499): 1.43976 ± 0.00067
refractive index (298.15 K, x2 = 0.607): 1.434 ± 0.00067
refractive index (298.15 K, x2 = 0.6496): 1.42958 ± 0.00067
refractive index (298.15 K, x2 = 0.7006): 1.42436 ± 0.00067
refractive index (298.15 K, x2 = 0.7489): 1.41927 ± 0.00067
refractive index (298.15 K, x2 = 0.8013): 1.41367 ± 0.00067
refractive index (298.15 K, x2 = 0.8509): 1.40829 ± 0.00066
refractive index (298.15 K, x2 = 0.9005): 1.40288 ± 0.00066
refractive index (298.15 K, x2 = 0.95): 1.39742 ± 0.00066
refractive index (303.15 K, x2 = 0.0517): 1.48328 ± 0.00067
refractive index (303.15 K, x2 = 0.1): 1.47905 ± 0.00067
refractive index (303.15 K, x2 = 0.1522): 1.47452 ± 0.00067
refractive index (303.15 K, x2 = 0.1995): 1.47031 ± 0.00067
refractive index (303.15 K, x2 = 0.2511): 1.4657 ± 0.00067
refractive index (303.15 K, x2 = 0.3008): 1.4612 ± 0.00067
refractive index (303.15 K, x2 = 0.3516): 1.45652 ± 0.00067
refractive index (303.15 K, x2 = 0.4061): 1.45141 ± 0.00067
refractive index (303.15 K, x2 = 0.4489): 1.44727 ± 0.00067
refractive index (303.15 K, x2 = 0.4994): 1.44234 ± 0.00067
refractive index (303.15 K, x2 = 0.5499): 1.43736 ± 0.00067
refractive index (303.15 K, x2 = 0.607): 1.43155 ± 0.00067
refractive index (303.15 K, x2 = 0.6496): 1.42717 ± 0.00067
refractive index (303.15 K, x2 = 0.7006): 1.42195 ± 0.00067
refractive index (303.15 K, x2 = 0.7489): 1.41683 ± 0.00067
refractive index (303.15 K, x2 = 0.8013): 1.41122 ± 0.00067
refractive index (303.15 K, x2 = 0.8509): 1.40593 ± 0.00067
refractive index (303.15 K, x2 = 0.9005): 1.40048 ± 0.00066
refractive index (303.15 K, x2 = 0.95): 1.3949 ± 0.00066
refractive index (308.15 K, x2 = 0.0517): 1.48061 ± 0.00068
refractive index (308.15 K, x2 = 0.1): 1.47649 ± 0.00069
refractive index (308.15 K, x2 = 0.1522): 1.47204 ± 0.00067
refractive index (308.15 K, x2 = 0.1995): 1.4677 ± 0.00068
refractive index (308.15 K, x2 = 0.2511): 1.46309 ± 0.00068
refractive index (308.15 K, x2 = 0.3008): 1.45859 ± 0.00068
refractive index (308.15 K, x2 = 0.3516): 1.45387 ± 0.00068
refractive index (308.15 K, x2 = 0.4061): 1.4488 ± 0.00068
refractive index (308.15 K, x2 = 0.4489): 1.4447 ± 0.00067
refractive index (308.15 K, x2 = 0.4994): 1.43978 ± 0.00067
refractive index (308.15 K, x2 = 0.5499): 1.43476 ± 0.00067
refractive index (308.15 K, x2 = 0.607): 1.42904 ± 0.00067
refractive index (308.15 K, x2 = 0.6496): 1.42461 ± 0.00068
refractive index (308.15 K, x2 = 0.7006): 1.41938 ± 0.00068
refractive index (308.15 K, x2 = 0.7489): 1.41427 ± 0.00068
refractive index (308.15 K, x2 = 0.8013): 1.40871 ± 0.00067
refractive index (308.15 K, x2 = 0.8509): 1.40331 ± 0.00067
refractive index (308.15 K, x2 = 0.9005): 1.39799 ± 0.00067
refractive index (308.15 K, x2 = 0.95): 1.39263 ± 0.00066
refractive index (313.15 K, x2 = 0.0517): 1.47812 ± 0.00067
refractive index (313.15 K, x2 = 0.1): 1.47384 ± 0.00068
refractive index (313.15 K, x2 = 0.1522): 1.46953 ± 0.00069
refractive index (313.15 K, x2 = 0.1995): 1.46521 ± 0.00066
refractive index (313.15 K, x2 = 0.2511): 1.46062 ± 0.00067
refractive index (313.15 K, x2 = 0.3008): 1.45614 ± 0.00067
refractive index (313.15 K, x2 = 0.3516): 1.45137 ± 0.00067
refractive index (313.15 K, x2 = 0.4061): 1.44635 ± 0.00067
refractive index (313.15 K, x2 = 0.4489): 1.44226 ± 0.00067
refractive index (313.15 K, x2 = 0.4994): 1.43736 ± 0.00066
refractive index (313.15 K, x2 = 0.5499): 1.43237 ± 0.00066
refractive index (313.15 K, x2 = 0.607): 1.42656 ± 0.00068
refractive index (313.15 K, x2 = 0.6496): 1.42212 ± 0.00067
refractive index (313.15 K, x2 = 0.7006): 1.41686 ± 0.00068
refractive index (313.15 K, x2 = 0.7489): 1.41174 ± 0.00067
refractive index (313.15 K, x2 = 0.8013): 1.40625 ± 0.00067
refractive index (313.15 K, x2 = 0.8509): 1.4009 ± 0.00066
refractive index (313.15 K, x2 = 0.9005): 1.39547 ± 0.00067
refractive index (313.15 K, x2 = 0.95): 1.39007 ± 0.00068
